Test results: patent US20250388592A1 (REMYND N.V., priority 2022, published 2025)

Legend:
[1] = test system: Tau-P301S transgenic mice; experiment: Hippocampal long-term potentiation (CA3-CA1 fEPSP) in human Tau transgenic mice model of Alzheimer disease; assay type: in vivo, mouse; settings: 41-60 minute post-induction interval
Excerpt: The Tau-P301S line of mice was transgenic for the 383 aa isoform of human tau with the P301S mutation (Allen et al., 2002). In these mice, a clinical mutant of the human Tau (P301S) was expressed under control of the murine Thy1 promoter (neuron-specific expression) in C57Bl/6JxCBA/ca background. The homozygous hTauP301S-Tg model used consisted of the progeny from a cross between two homozygous hTauP301S-Tg parental mice in C57Bl/6JxCBA/ca background, bred in SPF breeding conditions.
Six mice (3,5 months of age) per group were treated orally once daily for 7 days with vehicle or 0.4, 2 or 10 mg/kg cpd B061, or twice daily for 7 days with vehicle or 25 mg/kg cpd B112, formulated in labrasol/capryol (70/30% W/V). A wild type vehicle group was included as well. The mice in study were sacrificed after a minimum of 7 days of acclimatization and 7 days of dosing. LTP measurements occurred between 90 and 120 minutes after excision of the brain.
Mice were anaesthetized with isoflurane and then decapitated. Heads were immediately immersed in ice-cold freshly prepared artificial CSF (cerebrospinal fluid) (aCSF) for at least 2 min before brain extraction. Acute slices (400 μm thick) were prepared with a vibratome (VT 1000S; Leica Microsystems, Bannockburn, IL) in ice-cold gassed aCSF. Sections were incubated in aCSF at 34° C. for 20 min and then kept at room temperature for at least 1 h before recording. aCSF was composed of the following (in mM): 119 NaCl, 11 d-glucose, 1.3 MgCl2·6H2O, 1.3 NaH2PO4, 2.5 KCl, 2.5 CaCl2, 26 NaHCO3, gassed with O2/CO2 (95/5%) at least 20 min before use and throughout the experiment.
Recordings were performed in a submerged chamber continuously flowed with aCSF at 2 ml/min. Extracellular field excitatory postsynaptic potentials (fEPSPs) were recorded in the CA1 stratum radiatum using a glass micropipette filled with aCSF. fEPSPs were evoked by the electrical

M17_3TAU(P301L) cells = experiment: TAU-induced cytotoxicity (LDH) in the neuroblastoma tauopathy model; assay type: cell-based; settings: Homo sapiens, 168 h, inhibition of TAU-induced toxicity, 7 days retinoic acid differentiation, LDH readout
Summary of the method: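 Stably transfected BE-M17 cells expressing human TAU-P301L, seeded in serum-free detection medium, then differentiated with 2.5 μM RA (added in equal volume) for 7 days at 37° C/5% CO2 to induce TAU aggregation. Cytotoxicity = supernatant LDH increase over total LDH; EC50 from dose-dependent inhibition curves.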

O=C(Cc1ccc(Cl)cc1)N1CC2(CN(Cc3ccc(F)cc3)C2)C1 [Cpd B061, 2-(4-chlorophenyl)-1-(6-(4-fluorobenzyl)-2,6-diazaspiro[3.3]heptan-2-yl)ethanone]
Average fEPSP slope (% of baseline) ([1]; 0.4 mpk orally once daily for 7 days): 129.0 % of baseline | Average fEPSP slope (% of baseline) ([1]; 2 mpk orally once daily for 7 days): 152.2 % of baseline | Average fEPSP slope (% of baseline) ([1]; 10 mpk orally once daily for 7 days): 169.3 % of baseline | EC50 (M17_3TAU(P301L) cells): 2.46 nM

O=C(CC1CCC(F)(F)CC1)N1CC2(CN(Cc3ncccc3C(F)(F)F)C2)C1 [Cpd B112]
Average fEPSP slope (% of baseline) ([1]; 25 mpk orally twice daily for 7 days): 144.4 % of baseline | EC50 (M17_3TAU(P301L) cells): 12.2 nM
